Reference: ChEMBL document CHEMBL1132900, “Methaqualone derivatives are potent noncompetitive AMPA receptor antagonists” (Bioorg Med Chem Lett, 2000)

What follows are compounds tested against Glutamate receptor ionotropic, AMPA (Rattus norvegicus, UniProt P19490+P19491+P19492+P19493).
Description: Antagonist potency against functional AMPA receptor by kainate-induced Ca+2 in rat cerebellar granule neurons in primary culture

Q: With `Cc1ccc(C#N)c(/C(O)=C/c2nc3ccc(F)cc3c(=O)n2-c2ccccc2Cl)n1` as the compound, how does the IC50 read?
A: 0.0093 µM

Q: Which IC50 does the source give for `N#Cc1cccnc1/C(O)=C/c1nc2ccc(F)cc2c(=O)n1-c1ccccc1Cl` here?
A: 0.014 µM

Q: How did the IC50 turn out when `N#Cc1ccccc1/C(O)=C/c1nc2ccc(F)cc2c(=O)n1-c1ccccc1Cl` was run?
A: 0.13 µM

Q: How did the IC50 turn out when `O=c1c2ccccc2nc(/C=C(\O)c2ccccn2)n1-c1ccccc1Cl` was run?
A: 0.49 µM

Q: With `O=c1c2cc(F)ccc2nc(/C=C(\O)c2ccccc2F)n1-c1ccccc1Cl` as the compound, how does the IC50 read?
A: > 30 µM

Q: With `O=c1c2ccccc2nc(/C=C(\O)c2ccncc2)n1-c1ccccc1Cl` as the compound, how does the IC50 read?
A: 0.37 µM

Q: `Cc1cccc(/C(O)=C/c2nc3ccc(F)cc3c(=O)n2-c2ccccc2Cl)n1` was tested. Which IC50 did it give?
A: 5.5 µM

Q: For `O=c1c2cc(F)ccc2nc(/C=C(\O)c2ccccn2)n1-c1ccccc1Cl`, which IC50 is on record?
A: 0.25 µM

Q: For `CC1=NN=C(c2ccc(N)cc2)c2cc3c(cc2C1)OCO3` [GYKI-52466], which IC50 is on record?
A: 22 µM

Q: Which IC50 does the source give for `Cc1nc2ccccc2c(=O)n1-c1ccccc1Cl` [MECLOQUALONE] here?
A: > 10 µM

Q: `Cc1ccccc1-n1c(C)nc2ccccc2c1=O` [METHAQUALONE] was tested. Which IC50 did it give?
A: > 10 µM
